This is an account of results in US20150290231A1, “COMPOSITION FOR INHIBITING CELLULAR SENESCENCE COMPRISING QUERCETIN-3-O-beta-D-GLUCURONIDE” (INDUSTRY-ACADEMIC COOPERATION FOUNDATION, YEUNGNAM …, priority 2012, published 2015).

Test [1] relates to human dermal fibroblasts (HDFs). As to the kind of experiment: Adriamycin-induced cellular senescence, SA-β-gal activity staining, HDFs. In kind it is cell-based. To be noted: 3 days. How it is done: (§1) FIG. 1 represents the effect of quercetin-3-O-β-D-glucuronide (Q3GA) on adriamycin-induced cellular senescence in human dermal fibroblasts (HDFs). Cells treated with 500 nM adriamycin for 4 h were seeded at 500 cells/well in 96 well plates. After treatment with increasing concentrations of Q3GA, cells were incubated for 3 days and cellular senescence assessed by SA-β-gal activity staining. SA-β-gal activity staining (Left) and percentages of SA-β-gal positive cells in HDFs (Right). Representative SA-β-gal staining pictures of 3 independent experiments are shown. Values are means±SDs from 3 independent experiments measured in triplicates. C, control; D, dimethyl sulfoxide; N, 5 mM N-acetylcysteine; R, 500 nM rapamycin. *p<0.05 or **p<0.01 vs DMSO.
HDFs in DMEM with 10% FBS and 1% antibiotics (penicillin 10,000 unit/mL and streptomycin […]) were seeded at 1×10^5 cells per 100 mm culture plate and incubated at 37° C. in 5% CO2 humidified air. When subcultures reached 80-90% confluence, serial passaging was performed by trypsinization. HUVECs in EGM-2 media were cultured under the same conditions. The number of population doublings (PDs) was monitored for further experiments. PD was calculated using the geometric equation: PD=log 2F/log 2I (F, final cell number; I, initial cell number). HDFs in PD<35 and HUVECs in PD<30 were used for adriamycin-induced cellular senescence. […]

In test [2] the test system is p53. Briefly: Western blot of p53 in adriamycin-treated HUVECs. The test is classed as cell-based, human. To be noted: Q3GA 1 h prior to adriamycin 500 nM 4 h, concentration-dependent. The protocol:
(§2) FIG. 3 represents the effect of Q3GA on the expression levels of p53, pS6K, and p21 proteins in HDFs and HUVECs treated with adriamycin. Cells were treated with the indicated concentrations of Q3GA for 1 h prior to adriamycin treatment and incubated for 4 h. Proteins from cells were extracted and separated. The expression levels of each protein were analyzed by Western blotting. Representative data of 3 independent experiments are shown. NT, not treated with adrimycin; ADR, adriamcyin; C, control; D, dimethyl sulfoxide; N, 5 mM N-acetylcysteine; R, 500 nM rapamycin.
(§3) Each cells were divided into a 60 mm culture dish to the cell number of 1×10^5, and then cultured at 37° C. in a 5% CO2 incubator. […] The amount of the protein in the solution was quantified by bicinchoninic acid (BCA) method (Pierce Biotechnology Inc., Rockford Ill., USA) by using bovine serum albumin as a standard protein.
(§4) Protein (30 μg) was separated by being electrophoresed through a 10% SDS-polyacrylamide gel. […] The membrane was washed five times with TTBS for every 5 min, and then the amounts of p53, p21 and pS6 were measured by using an enhanced chemiluminescence solution. The amount of the specific protein reacted with each antibody was measured by using a LAS-3000 imaging system (Fujifilm Corp., Stanford, Conn., USA). […]

The test system of test [3] is p21. As to the kind of experiment: Western blot of p21 in adriamycin-treated HUVECs. The test is classed as cell-based, human. Conditions: Q3GA 1 h prior to adriamycin 500 nM 4 h, concentration-dependent. How it is done:
as §2, §3, §4
On the technique in general: A western blot detects proteins with antibodies after separation by electrophoresis.

The test system of test [4] is human dermal fibroblasts (HDFs). As to the kind of experiment: Intracellular ROS (DCF fluorescence, flow cytometry) in adriamycin-treated HDFs. In kind it is cell-based. Conditions: Q3GA 10 μg/ml, 3 days. The protocol: (§5) FIG. 4 represents the effect of Q3GA on intracellular ROS levels increased by adriamycin treatment in HDFs. Young cells (1.5×10^5) treated with or without adrimcyin were seeded in 60 mm culture dishes and incubated for 24 h. Following treatment of cells with 10 µg/mL of Q3GA, 0.5% DMSO, 5 mM NAC, or 500 nM rapamcyin for 3 days, cells were loaded with 250 µM H2DCFDA for 20 min. The DCF fluorescence intensity of each population of 10,000 cells was measured by flow cytometry. Representative data from three independent experiments are shown. Median fluorescence intensities were obtained and compared. Values are means±SDs from 3 independent experiments. NT, not treated with adrimycin; ADR, adriamcyin; C, control; D, dimethyl sulfoxide; N, 5 mM N-acetylcysteine; R, 500 nM rapamycin. *p<0.05 vs DMSO.
(§6) Each cells were divided into a 100 mm culture dish to the cell number of 1.5×10^5, and then cultured at 37° C. in a 5% CO2 incubator for 3 days. The cells were washed two times with DMEM medium containing antibiotics, and then adriamycin 500 nM was treated thereto for 4 hours. The cells were separated by treating trypsin-EDTA solution (2.5%), and then divided again into a 60 mm culture dish to the cell number of 1×10^5 followed by culturing at 37° C. in a 5% CO2 incubator. […] ROS was measured by using BD FACS Canto II flow cytometry (BD Biosciences, San Jose, Calif.).
In general terms: Flow cytometry measures light scatter and fluorescence of single cells or particles in a stream.

Test [5] concerns human umbilical vein endothelial cells (HUVECs). Briefly: Replicative senescence, SA-β-gal activity staining, old HUVECs. In kind it is cell-based. To be noted: old HUVECs (PD>50); increasing Q3GA concentration; 3 days; concentration-dependent. How it is done: FIG. 7 represents the effect of Q3GA on replicative senescence of HUVECs. […] Cellular senescence was assessed by SA-β-gal activity staining. Representative pictures of 3 independent experiments are shown. Percentages of SA-β-gal positive cells were measured. Values are means±SDs from 3 independent experiments. O, old cells; D, dimethyl sulfoxide; N, 5 mM N-acetylcysteine; R, 500 nM rapamycin. *p<0.05 or **p<0.05 vs DMSO.
(§7) HDFs in DMEM with 10% FBS and 1% antibiotics (penicillin 10,000 unit/mL and streptomycin […]) were seeded at 1×10^5 cells per 100 mm culture plate and incubated at 37° C. in 5% CO2 humidified air. When subcultures reached 80-90% confluence, serial passaging was performed by trypsinization. HUVECs in EGM-2 media were cultured under the same conditions. The number of population doublings (PDs) was monitored for further experiments. PD was calculated using the geometric equation: PD=log 2F/log 2I (F, final cell number; I, initial cell number). HDFs in PD<35 and HUVECs in PD<30 were used for adriamycin-induced cellular senescence. HDFs in PD>75 and HUVECs in PD>50 were used as old cells under replicative senescence.
The effect of single component on cellular senescence was examined by SA-β-gal activity staining. Each single component was treated in a 24-well culture plate or a 12-well culture plate for 3 days, and then the cells were washed with phosphate buffer. […]

For test [6], the system named is human dermal fibroblasts (HDFs). As to the kind of experiment: Replicative senescence, SA-β-gal activity staining, old HDFs. The test is classed as cell-based. To be noted: old HDFs (PD>75); increasing Q3GA concentration; 3 days; concentration-dependent. How it is done: FIG. 6 represents the effect of Q3GA on replicative senescence of HDFs. Old cells (3×10^4/well) were seeded in 6 well plates and incubated with or without 10 µg/mL of Q3GA for 3 days. Cellular senescence was assessed by SA-β-gal activity staining. Representative pictures of 3 independent experiments are shown. Percentages of SA-β-gal positive cells were measured. Values are means±SDs from 3 independent experiments. O, old cells; D, dimethyl sulfoxide; N, 5 mM N-acetylcysteine; R, 500 nM rapamycin. *p<0.05 or **p<0.05 vs DMSO.
as §7
The effect of single component on cellular senescence was examined by SA-β-gal activity staining. […]

For test [7], the system named is human umbilical vein endothelial cells (HUVECs). Briefly: Intracellular ROS (DCF fluorescence, flow cytometry) in adriamycin-treated HUVECs. In kind it is cell-based. Conditions: Q3GA 10 μg/ml, 3 days. How it is done: as §5, with “FIG. 5” for “FIG. 4”, “in HUVECs.” for “in HDFs.”
as §6

The test system is the same in test [8]. As to the kind of experiment: Adriamycin-induced cellular senescence, SA-β-gal activity staining, HUVECs. To be noted: 3 days. In kind it is cell-based. How it is done: as §1, with “FIG. 2” for “FIG. 1”, “human umbilical vein endothelial cells (HUVECs).” for “human dermal fibroblasts (HDFs).”, “at 1,000” for “at 500”, “in HUVECs” for “in HDFs”
HDFs in DMEM with 10% FBS and 1% antibiotics (penicillin 10,000 unit/mL and streptomycin […]) were seeded at 1×10^5 cells per 100 mm culture plate and incubated at 37° C. in 5% CO2 humidified air. When subcultures reached 80-90% confluence, serial passaging was performed by trypsinization. HUVECs in EGM-2 media were cultured under the same conditions. The number of population doublings (PDs) was monitored for further experiments. PD was calculated using the geometric equation: PD=log 2F/log 2I (F, final cell number; I, initial cell number). […]

The subject of test [9] is p21. Briefly: Western blot of p21 in adriamycin-treated HDFs. The test is classed as cell-based, human. To be noted: Q3GA 1 h prior to adriamycin 500 nM 4 h, concentration-dependent. The protocol:
as §2, §3, §4

The subject of test [10] is p53. As to the kind of experiment: Western blot of p53 in adriamycin-treated HDFs. In kind it is cell-based, human. Conditions: Q3GA 1 h prior to adriamycin 500 nM 4 h, concentration-dependent. How it is done:
as §2, §3, §4

Setting [11] is: Q3GA 10 μg/ml, adriamycin 500 nM 4 h.
Where [12] appears, read: increasing concentrations of Q3GA.

Take `O=C(O)[C@H]1O[C@@H](Oc2c(-c3ccc(O)c(O)c3)oc3cc(O)cc(O)c3c2=O)[C@H](O)[C@@H](O)[C@@H]1O` [Q3GA, quercetin-3-O-β-D-glucuronide]: the “SA-β-gal activity staining increased by adriamycin” value in [1] (setting [11]) and in test [8] (setting [11]) was “reduced by Q3GA treatment” each time. Moreover, the “SA-β-gal activity increased by adriamycin, concentration dependence” value in test [1] (setting [12]) and in test [8] (setting [12]) was “reduced as Q3GA concentration was increased” in each case. Besides, the “level of p53 protein increased by adriamycin” value in the test with p53 [2] and in the test with p53 [10] was “reduced” each time. The “level of p21 protein increased by adriamycin” value in the test with p21 [3] and with p21 [9] was “reduced” in each case. For the same molecule, the “intracellular ROS levels augmented by adriamycin (DCF fluorescence intensity)” value in [4] and in test [7] was “decreased intracellular ROS levels” each time. For the same molecule, the “SA-β-gal activity under replicative senescence” value in test [5] and in test [6] was “decreased SA-β-gal activity” each time.
